# Experimental data: patent US7709486B2, “CXCR4 antagonists” (Genzyme Corporation, priority 1998, dated 2010)
# Tested on: collagen-induced arthritis (CIA)
# Procedure: The experiments were performed in 8- to 12-week old mice, but in each experiment, the mutant and wild-type mice were age-matched with a 5 day limit. The male to female ratio was kept between 0.8 and 1.3 in each experimental group.
# Native chicken collagen type II (EPC, Owensvillle, Mo.) was dissolved in 0.05 M acetic acid at 2 mg/ml by stirring overnight at 6° C., and emulsified in an equal volume of incomplete (IFA) or complete Freund's adjuvant (CFA) containing 1.5 mg/ml heat killed Mycobacterium butyricum (Difco, Detroit, Mich.). Mice were sensitized with a single 100 μl intradermal injection of the emulsion at the base of the tail. Mice were examined daily for signs of arthritis. The disease severity was recorded following a scoring system for each limb. Score 0: normal; score 1: redness and/or swelling in one joint; score 2: redness and/or swelling in more than one joint; score 3: redness and/or welling in the entire paw; score 4: deformity and/or ankylosis.
# Spleens and fore and hind limbs were fixed in buffered saline—B5fixative (10% formalin with quicksilver). […] Limbs were subsequently decalcified overnight with formic acid. […] Severity of arthritis was evaluated using three parameters: infiltration of mono- and polymorphonuclear cells, hyperplasia of the synovium and parmus formation. Each parameter was scored on a scale from 0 to 3 (absent; weak, moderate and severe).
compound,measurement,setting,value
"c1cc(CN2CCCNCCNCCCNCC2)ccc1CN1CCCNCCNCCCNCC1 [AMD3100, 1,1′-[1,4-phenylenebis(methylene)]bis-1,4,8,11-tetraazacyclotetradecane]",Body weight loss compared with control animals,"collagen-injected mice, treated",did not demonstrate any significant body weight loss
same,Time until the single affected treated animal developed arthritic pathology,post-treatment,> 20 days
